Laboratory results taken from patent US20260356824A1, “COMPOUNDS FOR TREATING FIBROTIC DISEASES” (Meta-Immue Inc., priority 2023, published 2026).

Key:
hLPAR1 = target: T1, hLPAR1 (Homo sapiens, UniProt Q92633); assay: Ca2+ Flux Assay (B103 cells stably expressing hLPAR1); type: cell-based; conditions: LPA-induced calcium release, Fura-2 AM, compound 20 min at RT
T1 construct: expressed in transfected cells
Experimental: B103 cells stably expressing hLPAR1 were seeded at a density of 1.0×10^5 cells per well in clear flat-bottom black 96-well plates and incubated overnight in complete media. The following day, the cells were pre-incubated in serum-free media for 2 hours prior to ensure cellular equilibration. For the loading a calcium-sensitive fluorescent dye, the cells were treated with a concentration of 5 μM Fura-2 AM dye (Sigma, F1225) in Hank's buffered salt solution (HBSS) supplemented with 20 mM HEPES, […], and 0.3% fatty-acid-free bovine serum albumin for 40 minutes at room temperature (RT). Test compounds, prepared in DMSO, were then added to each well and incubated for 20 minutes at RT. To induce calcium release, a concentration of […] in HBSS supplemented with 20 mM HEPES, and 0.3% fatty-acid-free bovine serum albumin was introduced. Intracellular calcium mobilization was subsequently quantified by monitoring the fluorescence intensity using the Spark® multimode microplate reader (TECAN).

A2058 cells = assay: Chemotaxis Assay (LPA-induced migration of A2058 cells); type: cell-based; conditions: Homo sapiens, 4 to 8 hours, crystal violet 590 nm
Experimental: For monitoring the migration of cells, Neuroprobe ChemoTx® System plates ([…], 5.7 mm diameter sites; Gaithersburg, MD, USA) were utilized. To induce cell migrations, a concentration of […] or vehicle in DMEM were loaded to the bottom chamber. A total of 15,000 A2058 cells, which were starved for 24 hr following treated with test compounds or vehicle, were then applied to the upper membrane coated with 0.001% fibronectin. The plate was incubated for 4 to 8 hours to allow cell migration. Following incubation, the plate was dissembled, and the migrated cells were visualized by crystal violet staining. The stained area with crystal violet was quantified by measuring the absorbance at 590 nm and the relative percentage of the control was calculated.

T1 sequence (Q92633 whole entry): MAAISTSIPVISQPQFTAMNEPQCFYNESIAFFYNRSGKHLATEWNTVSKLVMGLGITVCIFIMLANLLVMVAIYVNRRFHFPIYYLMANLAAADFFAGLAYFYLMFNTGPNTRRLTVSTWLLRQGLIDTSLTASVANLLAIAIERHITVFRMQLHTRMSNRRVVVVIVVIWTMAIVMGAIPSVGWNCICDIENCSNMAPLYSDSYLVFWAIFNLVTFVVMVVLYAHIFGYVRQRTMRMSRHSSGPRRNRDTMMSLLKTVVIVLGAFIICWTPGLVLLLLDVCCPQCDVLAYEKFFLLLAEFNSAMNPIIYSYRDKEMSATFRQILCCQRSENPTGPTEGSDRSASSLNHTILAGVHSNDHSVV

SMILES | IC50 (hLPAR1) [µM] | IC50 (A2058 cells) [µM]
Cc1noc(C2CCN(c3ccc(C4(C(=O)O)CC4)cc3)CC2)c1Nc1cccc(-c2ccccc2)n1 [Compound 49] | 0.01 to 0.2 | 0.5 to 5
Cc1noc(C2CCN(c3ccc(C4(C(=O)NS(=O)(=O)C5(CO)CC5)CC4)cc3)CC2)c1NC(=O)O[C@H](C)c1ccccc1 [Compound 77] | < 0.01 | < 0.1
Cc1noc(C2CCN(c3ccc(C4(C(=O)NS(=O)(=O)CC5(C)COC5)CC4)cc3)CC2)c1NC(=O)O[C@@H](C)c1ccccc1 [Compound 81] | < 0.01 | < 0.1
Cc1noc(C2CCN(c3ccc(C4(C(=O)NS(=O)(=O)CC5(C(=O)O)CC5)CC4)cc3)CC2)c1NC(=O)O[C@H](C)c1ccccc1 [Compound 82, 1-[({[1-(4-{4-[3-methyl-4-({[(1R)-1-phenylethoxy]carbonyl}amino)-1,2-oxazol-5-yl]piperidin-1-yl}phenyl)cyclopropyl]formamido}sulfonyl)methyl]cyclopropane-1-carboxylic acid] | < 0.01 | < 0.1
Cc1noc(C2CCN(c3ccc(C4(c5nnn[nH]5)CC4)cc3)CC2)c1NC(=O)O[C@H](C)c1ccccc1 [Compound 88, [(1R)-1-phenylethyl]N-[3-methyl-5-[1-[4-[1-(1H-tetrazol-5-yl)cyclopropyl]phenyl]-4-piperidyl]isoxazol-4-yl]carbamate] | < 0.01 | < 0.1
Cc1noc(C2CCN(c3ccc(C4(S(=O)(=O)O)CC4)cc3)CC2)c1NC(=O)O[C@H](C)c1ccccc1 [Compound 89, 1-[4-[4-[3-methyl-4-[[(1R)-1-phenylethoxy]carbonylamino]isoxazol-5-yl]-1-piperidyl]phenyl]cyclopropanesulfonic acid] | < 0.01 | 0.1 to 0.5
Cc1cc(NC(=O)O[C@H](C)c2ccccc2)c(C2CCN(c3ccc(C4(C(=O)O)CC4)cc3)CC2)s1 [Compound 91] | ≥ 3 | 0.1 to 0.5
Cc1noc(C2CCN(c3ccc(C4(C(=O)O)CC4)cc3)CC2)c1NC(=O)OC(C)C1CCCCC1 (stereo not shown) [Compound 96] | 0.01 to 0.2 | 0.5 to 5
Cc1noc(C2CCN(c3ccc(C4(C(=O)O)CC4)cc3)CC2)c1NC(=O)OC1C2C[C@H]3C[C@@H](C2)C[C@@H]1C3 (stereo partly shown) [Compound 97] | 0.2 to 3 | 0.5 to 5

The next lines start with the values.

IC50 (hLPAR1) [µM] | IC50 (A2058 cells) [µM] | SMILES
< 0.01 | < 0.1 | Cc1noc(C2CC3(C2)CN(c2ccc(C4(C(=O)NS(=O)(=O)CCC(=O)O)CC4)cc2)C3)c1NC(=O)O[C@H](C)c1ccccc1 [Compound 50]
< 0.01 | 0.5 to 5 | Cc1nnn(C2CCN(c3ccc(C4(C(=O)O)CC4)cc3)CC2)c1NC(=O)O[C@H](C)c1ccccc1Cl [Compound 51]
< 0.01 | < 0.1 | Cc1noc(C2CC3(C2)CN(c2ccc(C4(C(=O)NS(=O)(=O)CCCO)CC4)cc2)C3)c1NC(=O)O[C@H](C)c1ccccc1 [Compound 52]
< 0.01 | 0.5 to 5 | Cc1nnn(C2CCN(c3ccc(C4(C(=O)O)CC4)cc3)CC2)c1NC(=O)O[C@H](C)c1ccccc1 [Compound 53]
< 0.01 | 0.1 to 0.5 | C[C@@H](OC(=O)Nc1c(C2CCN(c3ccc(C4(C(=O)NS(=O)(=O)C(C)(C)C(=O)O)CC4)cc3)CC2)nnn1C)c1ccccc1 [Compound 56]
< 0.01 | < 0.1 | C[C@@H](OC(=O)Nc1c(C2CCN(c3ccc(C4(C(=O)NS(=O)(=O)C5(C(=O)O)CC5)CC4)cc3)CC2)nnn1C)c1ccccc1 [Compound 57, 1-[[1-[4-[4-[1-methyl-5-[[(1R)-1-phenylethoxy]carbonylamino]triazol-4-yl]-1-piperidyl]phenyl]cyclopropanecarbonyl]sulfamoyl]cyclopropanecarboxylic acid]
< 0.01 | < 0.1 | Cc1noc(C2CCN(c3ccc(C4(C(=O)NS(=O)(=O)C(F)(F)C(N)=O)CC4)cc3)CC2)c1NC(=O)O[C@H](C)c1ccccc1 [Compound 66]
< 0.01 | < 0.1 | COC(=O)C(C)(C)S(=O)(=O)NC(=O)C1(c2ccc(N3CCC(c4onc(C)c4NC(=O)O[C@H](C)c4ccccc4)CC3)cc2)CC1 [Compound 69, methyl 2-methyl-2-[[1-[4-[4-[3-methyl-4-[[(1R)-1-phenylethoxy]carbonylamino]isoxazol-5-yl]-1-piperidyl]phenyl]cyclopropanecarbonyl]sulfamoyl]propanoate]
< 0.01 | < 0.1 | Cc1noc(C2CCN(c3ccc(C4(C(=O)NS(=O)(=O)C5(C(N)=O)CC5)CC4)cc3)CC2)c1NC(=O)O[C@H](C)c1ccccc1 [Compound 73, (1R)-1-phenylethyl N-(5-{1-[4-(1-{[(1-carbamoylcyclopropyl)sulfonyl]carbamoyl}cyclopropyl)phenyl]piperidin-4-yl}-3-methyl-1,2-oxazol-4-yl)carbamate]
< 0.01 | < 0.1 | Cc1noc(C2CCN(c3ccc(C4(C(=O)NS(=O)(=O)C5(C(=O)O)CC5)CC4)cc3)CC2)c1NC(=O)O[C@H](C)c1ccccc1 [Compound 75]
< 0.01 | 0.1 to 0.5 | Cc1noc(C2CCN(c3ccc(C4(C(=O)NS(=O)(=O)C5(CC(=O)O)CC5)CC4)cc3)CC2)c1NC(=O)O[C@H](C)c1ccccc1 [Compound 76]
